Entries after “also recorded” stand apart in the source; their conditions may differ. Where a name gives a salt, the structure may show the parent alone.
Tests used:
[1] = system: PC9-LeptoM cells; assay: In vivo leptomeningeal metastasis assay, PC9-LeptoM model, intracisternal chelator treatment; parameters: species or system mouse; details: for Median Survival: every 3 days; for [Fe]: total iron in CSF
Source text: (§1) FIG. 16A-16L. Iron chelator treatment reduces CSF iron. (A) Experimental scheme. Mice were inoculated with 2×10^3 cells intrathecally on day 0. Treatment with either vehicle, DFO, or D-pen was commenced on either day 1 or day 7 and continued every third day for a total of 7 doses. (B) Chelators delivered intrathecally. DFO, Deferoxamine. D-Pen, D-Penicillamine. (C-F) Intracellular iron (C and E) and viability (D and F) of PC9-LeptoM cells and MDA231-LeptoM cells after treatment with chelators in different concentrations (0 μM, 1 μM, 10 μM and 100 μM). n=3-4 per group in each of two independent experiments. * indicates p<0.05, ** indicates p<0.01, ***indicates p<0.001, **** indicates p<0.0001 (unpaired t test). Data represent mean±SEM. (G) Growth of PC9-LeptoM tumor after treatment indicated in (A). Left: in vivo BLI imaging in day 28 post-inoculation. n=8-10 per group in each of two independent experiments. Right: Representative BLI images. **** indicates p<0.0001. Data represent mean±SEM. (H) Kaplan-Meier survival curve from (C) and (E). p<0.0001. (I and J) Total iron concentration measured in CSF samples of mice with treatment of chelators in PC9-LeptoM Model (I) in MDA231-LeptoM model (J). NS=not significant, * indicates p<0.05, ** indicates p<0.01 (unpaired t test). Data represent mean±SEM. (K and L) Immune cell composition in CSF of LLC-LeptoM model with the treatment of vehicle, DFO, or D-pen at day 10. n=6 per group. NS=not significant, * indicates p<0.05, ** indicates p<0.01 (unpaired t test). Data represent mean±SEM.
In vivo leptomeningeal metastasis assays. To model leptomeningeal metastasis with a known consistent disease burden, 2×10^3 PC9, 2×10^3 MDA231, or 1×10^3 LLC Parental or LeptoM cells suspended in 10 μl PBS were injected into the cisterna magna of anesthetized mice. This procedure was tolerated well by the mice. Tumor progression was monitored by bioluminescence imaging (BLI) every 7 days after tumor cell inoculation, and mouse condition was monitored daily. When the tumor cells encompassed the entire CNS, or when neurological impairment became apparent, CSF was collected as described above, and mice were euthanized. Brains and spinal cord were collected in tissue fixative and embedded for preservation or histological and morphometric analysis. The role of LCN2 in cancer progression at multiple metastatic sites was also assessed. Tumor burden was monitored and quantified non-invasively after tumor cell inoculation either by BLI signal using the IVIS Spectrum Xenogen (Caliper Life Sciences) machine or with calibrated digital caliper. To track cancer cell growth after hematogenous dissemination, 5×10^4 PC9-LeptoM cells (shCtl, shLCN2-1 and shLCN2-2) suspended in 50 μL PBS were injected into the left heart ventricle. Tumor burden was monitored every 3 days with BLI. To measure cancer cell growth in the lungs, 2.5×10^4 PC9-LeptoM cells (diluted 1:1 in Growth factor-reduced Matrigel, #354230) were injected into the left lung through the rib cage. Tumor burden was monitored every 3 days with BLI. To assess cancer cell growth after subcutaneous inoculation, 1×10^6 PC9-LeptoM cells (diluted 1:1 in growth factor-reduced Matrigel) were injected under the flank skin of the mouse, and tumor burden was monitored every 3 days with calibrated digital caliper. To introduce cells into the mammary fat pad, 5×10^4 MDA-231-LeptoM cells (diluted 1:1 in growth factor-reduced Matrigel) were injected into the fourth inguinal mammary fat pad; tumor burden was measured every 3 days with calibrated digital caliper. To test a hypoxic environment other than the leptomeninges, 5×10^6 cells, diluted in 200 uL PBS, were injected intraperitoneally. Tumor burden was monitored 7 days after inoculation by BLI. Exact numbers for each experimental series are included in the relevant Figure legends.
Mouse CSF collection and Intrathecal drug administration. […]

[2] = system: LeptoM cells; assay: Iron Assay, chelation assay in vitro (intracellular iron); format: cell-based, human; details: PC9-LeptoM and MDA231-LeptoM cells; 0, 1, 10, 100 μM; in words
Source text: as §1, with “NS=not significant, * indicates p<0.05, ** indicates p<0.01 (unpaired t test). Data represent mean±SEM. (K and L) Immune cell composition in CSF of LLC-LeptoM model with the treatment of vehicle, DFO, or D-pen at day 10. n=6 per group. NS=not significant, * indicates p<0.05, ** indicates p<0.01 (unpaired t test). Data represent mean±SEM.” left out
Iron Assay. […] The Iron Assay Kit (Sigma-Aldrich, MAK025) was used to quantify total iron in the intracellular contents and culture supernatant following the manufacturer's protocols. […]

[3] = system: LeptoM cells; assay: Cell Viability Assay / growth after chelator treatment; format: cell-based, human; details: PC9-LeptoM and MDA231-LeptoM; in words
Source text: as §1, with “NS=not significant, * indicates p<0.05, ** indicates p<0.01 (unpaired t test). Data represent mean±SEM. (K and L) Immune cell composition in CSF of LLC-LeptoM model with the treatment of vehicle, DFO, or D-pen at day 10. n=6 per group. NS=not significant, * indicates p<0.05, ** indicates p<0.01 (unpaired t test). Data represent mean±SEM.” left out
Cell Viability Assay. […] The CellTiter-Glo Luminescent Cell Viability Assay (Promega G9241) was used to quantify viable cells in culture according to the manufacturer's protocols. […]

Structure (SMILES) | Median Survival ([1]; PC9-LeptoM model, intracisternal, start day not given) [days] | [Fe] ([1]; PC9-LeptoM model, start day not given) [µM] | iron concentration in the CSF compared to control mice ([1]; PC9-LeptoM model, day 28, in words) | [Fe] ([1]; PC9-LeptoM model, late (day 7)) [µM] | Median Survival ([1]; PC9-LeptoM model, treatment begun late (day 7)) [days] | dissemination of cancer cells over the spinal cord ([1]; PC9 mouse model, both early and late treatment groups, in words) | survival compared with vehicle control ([1]; PC9 mouse model, in words) | iron levels within the LeptoM cells [2] | growth of the LeptoM cells [3]
CC(C)(S)[C@@H](N)C(=O)O [D-Pen, D-penicillamine] | 31.5 ± 3.5 | 15.13 ± 4.21 | – | – | – | – | – | – | –
CC(=O)N(O)CCCCCNC(=O)CCC(=O)N(O)CCCCCNC(=O)CCC(=O)N(O)CCCCCN [DFO, Deferoxamine mesylate] | – | – | profoundly decreased; also recorded: reduced CSF iron concentration to that of non-LeptoM control mice | 4.74 ± 0.38 | 40 ± 5 | impaired dissemination | conferred a survival benefit; also recorded: significant survival benefit | substantially suppressed; also recorded: dramatically suppressed | substantially suppressed; also recorded: dramatically suppressed
